Experiments:
AR 1.0 cells [1] = test: Drug accumulation assay: daunorubicin accumulation in AR 1.0 cells; assay type: cell-based; conditions: Mus musculus, 100% = accumulation with verapamil 100 μM, 1 hr, 37° C.
Procedure, shortened: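 AR 1.0 is the MDR-resistant subline of EMT6 mouse mammary carcinoma, grown in RPMI 1640 with 10% foetal calf serum and 2 mM glutamine at 37 °C, 5% CO2. Cells were seeded 48 h before the daunorubicin accumulation assay.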

AR 1.0 cells [2] = test: Potentiation of doxorubicin toxicity: proliferation assay (sulphorhodamine B); assay type: cell-based, mouse
From the text: (a) Selected compounds of formula (I) were examined for their ability to potentiate the toxicity of doxorubicin in AR 1.0 cells.

AR 1.0 cells [3] = test: Potentiation index with doxorubicin titration; assay type: cell-based, mouse; conditions: for Potentiation Index at RMA concentration 10 nM: Table C2, RMA 10 nM; for Potentiation Index at RMA concentration 30 nM: Table C2, RMA 30 nM; for Potentiation Index at RMA concentration 100 nM: Table C2, RMA 100 nM; for Potentiation Index at RMA concentration 300 nM: Table C2, RMA 300 nM
Procedure, shortened: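 MDR-resistant mouse EMT6 subline AR 1.0 grown four days with a doxorubicin titration (0.263 nM-17.24 μM) plus a fixed compound concentration; proliferation by sulphorhodamine B. Potentiation index derived from doxorubicin IC50 alone versus with compound.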

[4] = Mus musculus, 96 h, compound alone, four day proliferation, read-out: Compound Toxicity (IC50)
[5] = with fixed doxorubicin 0.34 μm, four days, 5760 min, read-out: Toxicity with Cytotoxic Agent (IC50)

Compound	IC50 (AR 1.0 cells [1])	IC50 (AR 1.0 cells [2]; [4])	IC50 (AR 1.0 cells [2]; [5])	Potentiation Index at RMA concentration 10 nM (AR 1.0 cells [3])	Potentiation Index at RMA concentration 30 nM (AR 1.0 cells [3])	Potentiation Index at RMA concentration 100 nM (AR 1.0 cells [3])	Potentiation Index at RMA concentration 300 nM (AR 1.0 cells [3])
COc1cc2c(cc1OC)CN(CCc1ccc(NC(=O)c3cc(C)ccc3NC(=O)c3cnc4ccccc4n3)cc1)CC2 [compound 9543, Quinoxaline-2-carboxylic acid (2-{4-[2-(6,7-dimethoxy-3,4-dihydro-1H-isoquinolin-2-yl)-ethyl]-phenylcarbamoyl}-4-methyl-phenyl)-amide]	70 nM	900 nM	8 nM	24	120	150	150
COc1cc2c(cc1OC)CN(CCc1ccc(NC(=O)c3ccccc3NC(=O)c3cnc4ccccc4c3)cc1)CC2 [compound 9544, Quinoline-3-carboxylic acid (2-{4-[2-(6,7-dimethoxy-3,4-dihydro-1H-isoquinolin-2-yl)ethyl]-phenylcarbamoyl}-phenyl)-amide]	50 nM	1900 nM	7.7 nM	15	67	120	150
COc1cc2c(cc1OC)CN(CCc1ccc(NC(=O)c3cc(O)ccc3NC(=O)c3cnc4ccccc4n3)cc1)CC2 [compound 9554, Quinoxaline-2-carboxylic acid (2-{4-[2-(6,7-dimethoxy-3,4-dihydro-1H-isoquinolin-2-yl)-ethyl]-phenylcarbamoyl}-4-hydroxy-phenyl)-amide]	990 nM	3000 nM	50 nM			90	
COc1cc2c(cc1OC)CN(CCc1ccc(NC(=O)c3ccccc3NC(=O)c3ccc(C)nc3)cc1)CC2 [compound 9557, N-(2-{4-[2-(6,7-Dimethoxy-3,4-dihydro-1H isoquinolin-2-yl)-ethyl]-phenylcarbamoyl}phenyl)-6-methyl-nicotinamide]	12 nM	9000 nM	20 nM	1.2		100	
COc1cc2c(cc1OC)CN(CCc1ccc(NC(=O)c3ccc(C(F)(F)F)cc3NC(=O)c3cnc4ccccc4n3)cc1)CC2 [compound 9561, Quinoxaline-2-carboxylic acid (2-{4-[2-(6,7-dimethoxy-3,4-dihydro-1H-isoquinolin-2-yl)-ethyl]-phenylcarbamoyl}-5-trifiuoromethyl-phenyl)-amide]	55 nM	13000 nM	10 nM	14	60	100	
COc1cc2c(cc1OC)CN(CCc1ccc(NC(=O)c3c(F)cccc3NC(=O)c3cnc4ccccc4n3)cc1)CC2 [compound 9564, Quinoxaline-2-carboxylic acid (2-{4-[2-(6,7-dimethoxy-3,4-dihydro-1H-isoquinolin-2-yl)-ethyl]-phenylcarbamoyl}-3-fluoro-phenyl)-amide]	200 nM	400 nM	8 nM			129	
COc1cc2c(cc1OC)CN(CCCc1ccc(NC(=O)c3ccccc3NC(=O)c3cnc4ccccc4n3)cc1)CC2 [compound 9567, Quinoxaline-2-carboxyXic acid (2-{4-[3-(6,7-dimethoxy-3,4-dihydro-1H-isoquinolin-2-yl)-propyl]-phenylcarbamoyl}-phenyl)-amide]	160 nM	1700 nM	28 nM	1.7	8	112	
COc1cc2c(cc1OC)CN(CCc1ccc(NC(=O)c3cc(F)ccc3NC(=O)c3cnc4ccccc4n3)cc1)CC2 [compound 9568, Quinoxaline-2-carboxylic acid. (2-{4-[2-(6,7-dimethoxy-3,4-dihydro-1H-isoquinolin-2-yl)-ethyl]-phenylcarbamoyl}-4-fluoro-phenyl)-amide]	17 nM	2800 nM	3.4 nM	23	60	88	
COc1cc2c(cc1OC)CN(CCc1ccc(NC(=O)c3ccc(F)cc3NC(=O)c3cnc4ccccc4c3)cc1)CC2 [compound 9571, Quinoline-3-carboxylic acid (2-{4-[2-(6,7-dimethoxy-3,4-dihydro-1H-isoquinolin-2-yl)-ethyl]-phenylcarbamoyl}-5-fluoro-phenyl)-amide]	22 nM	2000 nM	0.8 nM	38	100	100	
COc1cc2c(cc1OC)CN(Cc1ccc(NC(=O)c3ccccc3NC(=O)c3cnc4ccccc4n3)cc1)CC2 [compound 9572, Quinoxaline-2-carboxylic acid {2-[4-(6,7-dimethoxy-3,4-dihydro-1H-isoquinolin-2-ylmethyl)-phenylcarbamoyl}-phenyl}-amide]	53 nM	1700 nM	14 nM	2.7	25	83	
COc1cc2c(cc1OC)CN(CCc1ccc(NC(=O)c3cc(OC)c(OC)cc3NC(=O)c3cnc4ccccc4n3)cc1)CC2 [compound 9573, Quinoxaline-2-carboxylic acid (2-{4-[2-(6,7-dimethoxy-3,4-dihydro-1H-isoquinolin-2-yl)-ethyl]-phenylcarbamoyl}-4,5-dimethoxy-phenyl)-amide]	9.5 nM	4000 nM		83	94	100	
COc1cc2c(cc1OC)CN(CCc1ccc(NC(=O)c3cc(F)ccc3NC(=O)c3cnc4ccccc4c3)cc1)CC2 [compound 9574, Quinoline-3-carboxylic acid (2-{4-[2-(6,7-dimethoxy-3,4-dihydro-1H-isoquinolin-2-yl)-ethyl]-phenylcarbamoyl}-4-fluoro-phenyl)-amide]	19 nM	320 nM		16	60	94	
O=C(Nc1ccccc1C(=O)Nc1ccc(CCN2CCc3ccccc3C2)cc1)c1cnc2ccccc2c1 [compound 9577, Quinoline-3-carboxylic acid (2-{4-[2-(3,4-dihydro-1H-isoquinolin-2-yl)-ethyl]-phenylcarbamoyl}-phenyl)-amide]	320 nM	7700 nM		2.2	18	112	
COc1cc2c(cc1OC)CN(CCc1ccc(NC(=O)c3cc4c(cc3NC(=O)c3cnc5ccccc5c3)OCO4)cc1)CC2 [compound 9578, Quinoline-3-carboxylic acid (6-{4-[2-(6,7-dimethoxy-3,4-dihydro-1H-isoquinolin-2-yl)-ethyl]-phenylcarbamoyl}-benzo[1,3]dioxoi-5-yl)-amide]	84 nM	900 nM		43	188		
